Test results as given in patent US20110218189A1, “PYRROLO[2,3-d]PYRIMIDIN-2-YL-AMINE DERIVATIVES AS PKC-THETA INHIBITORS” (N.V. ORGANON, priority 2008, published 2011).
pIC50: −log10 of the molar value.

These compounds were tested against T1, His-tagged human recombinant active PKC theta (Homo sapiens, UniProt Q04759) (assay: IMAP fluorescence polarization assay, inhibition of PKC theta kinase activity). Conditions: ATP 10 μM, peptide substrate 50 nM, 60 minutes at 30° C.; read-out: IC50 IMAP PKCθ.
T1 construct: His; made in house
Assay type: biochemical
Procedure: Inhibition of PKC theta kinase activity was measured using an Immobilized Metal for Phosphochemicals—based coupled assay (IMAP). IMAP is a homogeneous fluorescence polarization (FP) assay based on affinity capture of phosphorylated peptide substrates. IMAP uses fluorescein-labeled peptide substrates that, upon phosphorylation by a protein kinase, bind to so called IMAP nanoparticles, which are derivatized with trivalent metal complexes. Such binding causes a change in the rate of the molecular motion of the peptide, and results in an increase in the FP value observed for the fluorescein label attached to the substrate peptide. In this assay, PKC theta directly phosphorylates the fluorescein-labeled peptide substrate.
Enzymes, substrate and ATP are diluted at all steps in Kinase Reaction buffer (10 mM Tris-HCl, 10 mM MgCl2, 0.01% Tween-20, 0.05% NaN3 pH 7.2, 1 mM DTT). The final volume at the kinase reaction step of the assay in the 384-well plate is 20 μl. The concentrations presented within brackets are final concentrations. First, compounds or DMSO (1%) are added to the wells. Thereafter, peptide substrate (Pseudosubstrate LHQRRGSIKQAKVHHVK-FL, Neosystem, 50 nM) and ATP (10 μM) are added followed by the addition of the PKC theta enzyme (His-tagged human recombinant active PKC theta, 82 kDa, in-house purified, 10 ng/ml), and the mix is incubated for 60 minutes at 30° C. in the dark. Then IMAP progressive binding buffer (100% 1× buffer A, 1:400 Progressive Binding Reagent; Molecular Devices) is added followed by an incubation step of 60 minutes at room temperature in the dark. Finally, the FP signal is read.

T1 sequence (Q04759 whole entry): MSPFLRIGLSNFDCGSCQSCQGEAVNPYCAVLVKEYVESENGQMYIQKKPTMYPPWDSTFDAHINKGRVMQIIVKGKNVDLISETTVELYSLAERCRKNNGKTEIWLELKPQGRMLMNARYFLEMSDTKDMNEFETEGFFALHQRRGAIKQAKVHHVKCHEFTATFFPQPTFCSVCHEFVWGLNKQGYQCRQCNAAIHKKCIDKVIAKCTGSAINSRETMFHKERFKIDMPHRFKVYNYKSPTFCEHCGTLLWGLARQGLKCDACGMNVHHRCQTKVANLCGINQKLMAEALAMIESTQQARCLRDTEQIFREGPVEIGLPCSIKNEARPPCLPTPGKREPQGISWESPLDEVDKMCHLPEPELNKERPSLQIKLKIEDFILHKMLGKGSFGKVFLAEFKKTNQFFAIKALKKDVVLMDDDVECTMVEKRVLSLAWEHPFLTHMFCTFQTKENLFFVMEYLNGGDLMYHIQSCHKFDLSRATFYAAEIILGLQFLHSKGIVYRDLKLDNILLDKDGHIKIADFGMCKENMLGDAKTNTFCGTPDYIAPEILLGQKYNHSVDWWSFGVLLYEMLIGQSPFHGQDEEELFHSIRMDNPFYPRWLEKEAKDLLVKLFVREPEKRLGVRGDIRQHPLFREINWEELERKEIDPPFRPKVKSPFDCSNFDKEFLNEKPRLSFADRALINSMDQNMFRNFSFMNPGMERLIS

Row | SMILES | pIC50
1 | Fc1ccc(CNc2ncc3cc(-c4ccccc4Cl)n(C[C@@H]4CCCNC4)c3n2)cc1F [Example 1.1, (R)-6-(2-chlorophenyl)-N-(3,4-difluorobenzyl)-7-(piperidin-3-ylmethyl)-7H-pyrrolo[2,3-d]pyrimidin-2-amine] | > 8.00
2 | Oc1ccc(CNc2ncc3cc(-c4ccccc4Cl)n(C[C@@H]4CCCNC4)c3n2)cc1 [Example 1.2, (R)-4-((6-(2-chlorophenyl)-7-(piperidin-3-ylmethyl)-7H-pyrrolo[2,3-d]pyrimidin-2-ylamino)methyl)phenol] | 7.00 to 8.00
3 | Oc1cccc(CNc2ncc3cc(-c4ccccc4Cl)n(C[C@@H]4CCCNC4)c3n2)c1 [Example 1.3, (R)-3-((6-(2-chlorophenyl)-7-(piperidin-3-ylmethyl)-7H-pyrrolo[2,3-d]pyrimidin-2-ylamino)methyl)phenol] | 7.00 to 8.00
4 | Oc1ccc(CNc2ncc3cc(-c4ccccc4Cl)n(C[C@@H]4CCCNC4)c3n2)cc1F [Example 1.4, (R)-4-((6-(2-chlorophenyl)-7-(piperidin-3-ylmethyl)-7H-pyrrolo[2,3-d]pyrimidin-2-ylamino)methyl)-2-fluorophenol] | > 8.00
5 | Oc1cccc(CNc2ncc3cc(-c4c(Cl)cccc4Cl)n(C[C@@H]4CCCNC4)c3n2)c1 [Example 2.1, (R)-3-((6-(2,6-dichlorophenyl)-7-(piperidin-3-ylmethyl)-7H-pyrrolo[2,3-d]pyrimidin-2-ylamino)methyl)phenol] | > 8.00
6 | Fc1ccc(CNc2ncc3cc(-c4c(Cl)cccc4Cl)n(C[C@@H]4CCCNC4)c3n2)cc1F [Example 2.2, (R)-6-(2,6-dichlorophenyl)-N-(3,4-difluorobenzyl)-7-(piperidin-3-ylmethyl)-7H-pyrrolo[2,3-d]pyrimidin-2-amine] | > 8.00
7 | Oc1ccc(CNc2ncc3cc(-c4c(Cl)cccc4Cl)n(C[C@@H]4CCCNC4)c3n2)cc1 [Example 2.3, (R)-4-((6-(2,6-dichlorophenyl)-7-(piperidin-3-ylmethyl)-7H-pyrrolo[2,3-d]pyrimidin-2-ylamino)methyl)phenol] | 5.00 to 7.00
8 | COc1ccc(CNc2ncc3cc(-c4c(Cl)cccc4Cl)n(C[C@@H]4CCCNC4)c3n2)cc1F [Example 2.4, (R)-6-(2,6-dichlorophenyl)-N-(3-fluoro-4-methoxybenzyl)-7-(piperidin-3-ylmethyl)-7H-pyrrolo[2,3-d]pyrimidin-2-amine] | > 8.00
9 | Fc1cccc(CNc2ncc3cc(-c4c(Cl)cccc4Cl)n(C[C@@H]4CCCNC4)c3n2)c1 [Example 2.5, (R)-6-(2,6-dichlorophenyl)-N-(3-fluorobenzyl)-7-(piperidin-3-ylmethyl)-7H-pyrrolo[2,3-d]pyrimidin-2-amine] | > 8.00
10 | Clc1cccc(Cl)c1-c1cc2cnc(NCc3ccccc3)nc2n1C[C@@H]1CCCNC1 [Example 2.6, (R)-N-benzyl-6-(2,6-dichlorophenyl)-7-(piperidin-3-ylmethyl)-7H-pyrrolo[2,3-d]pyrimidin-2-amine] | > 8.00
11 | Cc1c(-c2ccccc2Cl)n(C[C@@H]2CCCNC2)c2nc(NCc3ccc(F)c(F)c3)ncc12 [Example 3.1, (R)-6-(2-chlorophenyl)-N-(3,4-difluorobenzyl)-5-methyl-7-(piperidin-3-ylmethyl)-7H-pyrrolo[2,3-d]pyrimidin-2-amine] | 7.00 to 8.00
12 | Cc1c(-c2c(Cl)cccc2Cl)n(C[C@@H]2CCCNC2)c2nc(NCc3ccc(F)c(F)c3)ncc12 [Example 3.2, (R)-6-(2,6-dichlorophenyl)-N-(3,4-difluorobenzyl)-5-methyl-7-(piperidin-3-ylmethyl)-7H-pyrrolo[2,3-d]pyrimidin-2-amine] | > 8.00
13 | Cc1c(-c2ccccc2)n(C[C@@H]2CCCNC2)c2nc(NCc3ccc(F)c(F)c3)ncc12 [Example 3.3, (R)—N-(3,4-difluorobenzyl)-5-methyl-6-phenyl-7-(piperidin-3-ylmethyl)-7H-pyrrolo[2,3-d]pyrimidin-2-amine] | 5.00 to 7.00
14 | Fc1ccc(CNc2ncc3cc(-c4ccccc4Cl)n(C[C@H]4CCCNC4)c3n2)cc1F [Example 4.1, (S)-6-(2-chlorophenyl)-N-(3,4-difluorobenzyl)-7-(piperidin-3-ylmethyl)-7H-pyrrolo[2,3-d]pyrimidin-2-amine] | 7.00 to 8.00
15 | Fc1ccc(CNc2ncc3cc(-c4ccccc4Cl)n(C[C@@H]4CCNC4)c3n2)cc1F [Example 4.2, (R)-6-(2-chlorophenyl)-N-(3,4-difluorobenzyl)-7-(pyrrolidin-3-ylmethyl)-7H-pyrrolo[2,3-d]pyrimidin-2-amine] | 5.00 to 7.00
16 | Fc1ccc(CNc2ncc3cc(-c4ccccc4Cl)n(C[C@H]4CCNC4)c3n2)cc1F [Example 4.3, (S)-6-(2-chlorophenyl)-N-(3,4-difluorobenzyl)-7-(pyrrolidin-3-ylmethyl)-7H-pyrrolo[2,3-d]pyrimidin-2-amine] | 7.00 to 8.00
17 | Fc1ccc(CNc2ncc3cc(-c4ccccc4Cl)n(CC4CNCCO4)c3n2)cc1F (centres unmarked) [Example 4.4, 6-(2-chlorophenyl)-N-(3,4-difluorobenzyl)-7-(morpholin-2-ylmethyl)-7H-pyrrolo[2,3-d]pyrimidin-2-amine] | 7.00 to 8.00

More lines, now with the values ahead:

Row | pIC50 | SMILES
18 | > 8.00 | Cc1ccc(-c2cc3cnc(NCc4ccc(F)c(F)c4)nc3n2C[C@@H]2CCCNC2)c(Cl)c1 [Example 5.1, (R)-6-(2-chloro-4-methylphenyl)-N-(3,4-difluorobenzyl)-7-(piperidin-3-ylmethyl)-7H-pyrrolo[2,3-d]pyrimidin-2-amine]
19 | 7.00 to 8.00 | COc1ccc(-c2cc3cnc(NCc4ccc(F)c(F)c4)nc3n2C[C@@H]2CCCNC2)c(Cl)c1 [Example 5.2, (R)-6-(2-chloro-4-methoxyphenyl)-N-(3,4-difluorobenzyl)-7-(piperidin-3-ylmethyl)-7H-pyrrolo[2,3-d]pyrimidin-2-amine]
20 | > 8.00 | Oc1ccc(-c2cc3cnc(NCc4ccc(F)c(F)c4)nc3n2C[C@@H]2CCCNC2)c(Cl)c1 [Example 5.3, (R)-3-chloro-4-(2-(3,4-difluorobenzylamino)-7-(piperidin-3-ylmethyl)-7H-pyrrolo[2,3-d]pyrimidin-6-yl)phenol]
21 | 7.00 to 8.00 | Fc1ccc(CNc2ncc3cc(-c4ccc(Cl)cc4Cl)n(C[C@@H]4CCCNC4)c3n2)cc1F [Example 5.4, (R)-6-(2,4-dichlorophenyl)-N-(3,4-difluorobenzyl)-7-(piperidin-3-ylmethyl)-7H-pyrrolo[2,3-d]pyrimidin-2-amine]
22 | > 8.00 | Fc1cc(Cl)c(-c2cc3cnc(NCc4ccc(F)c(F)c4)nc3n2C[C@@H]2CCCNC2)c(Cl)c1 [Example 5.5, (R)-6-(2,6-dichloro-4-fluorophenyl)-N-(3,4-difluorobenzyl)-7-(piperidin-3-ylmethyl)-7H-pyrrolo[2,3-d]pyrimidin-2-amine]
23 | > 8.00 | Oc1ccc(CNc2ncc3cc(-c4c(Cl)cccc4Cl)n(C[C@@H]4CCCNC4)c3n2)cc1Cl [Example 6.1, (R)-2-chloro-4-((6-(2,6-dichlorophenyl)-7-(piperidin-3-ylmethyl)-7H-pyrrolo[2,3-d]pyrimidin-2-ylamino)methyl)phenol]
24 | > 8.00 | Oc1ccc(CNc2ncc3cc(-c4c(Cl)cccc4Cl)n(C[C@@H]4CCCNC4)c3n2)cc1F [Example 6.2, (R)-4-((6-(2,6-dichlorophenyl)-7-(piperidin-3-ylmethyl)-7H-pyrrolo[2,3-d]pyrimidin-2-ylamino)methyl)-2-fluorophenol]
25 | > 8.00 | N#Cc1c(-c2c(Cl)cccc2Cl)n(C[C@@H]2CCCNC2)c2nc(NCc3ccc(F)c(F)c3)ncc12 [Example 7.1, (R)-6-(2,6-dichlorophenyl)-2-(3,4-difluorobenzylamino)-7-(piperidin-3-ylmethyl)-7H-pyrrolo[2,3-d]pyrimidine-5-carbonitrile]
26 | > 8.00 | Fc1ccc(CNc2ncc3c(F)c(-c4c(Cl)cccc4Cl)n(C[C@@H]4CCCNC4)c3n2)cc1F [Example 7.2, (R)-6-(2,6-dichlorophenyl)-N-(3,4-difluorobenzyl)-5-fluoro-7-(piperidin-3-ylmethyl)-7H-pyrrolo[2,3-d]pyrimidin-2-amine]
27 | > 8.00 | Fc1ccc(CNc2ncc3c(Br)c(-c4c(Cl)cccc4Cl)n(C[C@@H]4CCCNC4)c3n2)cc1F [Example 7.3, (R)-5-bromo-6-(2,6-dichlorophenyl)-N-(3,4-difluorobenzyl)-7-(piperidin-3-ylmethyl)-7H-pyrrolo[2,3-d]pyrimidin-2-amine]
28 | > 8.00 | Fc1ccc(CNc2ncc3cc(-c4c(Cl)cccc4Cl)n(CC4CNCCS4)c3n2)cc1F (centres unmarked) [Example 8.1, 6-(2,6-Dichlorophenyl)-N-(3,4-difluorobenzyl)-7-(thiomorpholin-2-ylmethyl)-7H-pyrrolo[2,3-d]pyrimidin-2-amine]
29 | > 8.00 | Fc1ccc(CNc2ncc3cc(-c4c(Cl)cccc4Cl)n(C4CCCNCC4)c3n2)cc1F (centres unmarked) [Example 8.2, 7-(Azepan-4-yl)-6-(2,6-dichlorophenyl)-N-(3,4-difluorobenzyl)-7H-pyrrolo[2,3-d]pyrimidin-2-amine]
